Experimental data: patent US7196192B2, “28-epirapalogs” (Ariad Gene Therapeutics, Inc., priority 1999, dated 2007)
Like-named read-outs stand apart in the source and are kept apart here.

Key:
FKBP = FKBP (Homo sapiens, UniProt P62942); assay: FKBP competitive binding assay based on fluorescence polarization (FP); conditions: competitive FP binding, methods of Example 2.5
Procedure: A Competitive Binding FP Assay is described in detail in WO99/36553 and WO96/41865. That assay permits the in vitro measurement of an IC50 value for a given compound which reflects its ability to bind to an FKBP-protein in competition with a labeled FKBP ligand, such as, for example, FK506.
(§1) A diverse group of C7-modified 28-epirapalogs were prepared as described in Example 4.

[1] = biological target: T1, transcriptional switch components containing FKBP and 2098L mutant FRB domains (Homo sapiens, UniProt P42345+P62942); assay: transcription assay in engineered HD1080 cells expressing SEAP (txn 2098L); assay type: cell-based
T1 construct: transcriptional switchcomponents containing FKBP and 2098L mutant FRB domains, respectively; fused on or other part: The two switch components are separate chimeric proteins; Neither is given for this cell line
T1 sequence (P62942 2-108 limits assumed, stated change not applied, other chains not shown): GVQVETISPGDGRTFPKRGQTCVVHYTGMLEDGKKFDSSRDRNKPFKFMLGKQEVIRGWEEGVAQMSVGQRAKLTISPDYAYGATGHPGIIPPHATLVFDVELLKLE
Source text: The ability of the rapalogs to multimerize chimeric proteins may be measured in cell-based assays by measuring the occurrence of an event triggered by such multimerization. For instance, one may use cells containing and capable of expressing DNA encoding a first chimeric protein comprising one or more FKBP-domains and one or more effector domains as well as DNA encoding a second chimeric protein containing an FRB domain and one or more effector domains capable, upon multimerization, of actuating a biological response. We prefer to use cells which further contain a reporter gene under the transcriptional control of a regulatory element (i.e., promoter) which is responsive to the multimerization of the chimeric proteins. The design and preparation of illustrative components and their use in so engineered cells is described in WO99/36553 and WO96/41865 and the other international patent applications referred to in this and the foregoing section. (See also W099/10510 for additional guidance on the design, assembly and delivery of nucleic acids to render cells and animals responsive to rapalogs of interest and for additional guidance on applications of such systems.) The cells are grown or maintained in culture. A rapalog is added to the culture medium and after a suitable incubation period (to permit gene expression and secretion, e.g. several hours or overnight) the presence of the reporter gene product is measured. Positive results, i.e., multimerization, correlates with transcription of the reporter gene as observed by the appearance of the reporter gene product. The reporter gene product may be a conveniently detectable protein (e.g. by ELISA) or may catalyze the production of a conveniently detectable product (e.g. colored). Materials and methods for producing appropriate cell lines for conducting such assays are disclosed in the international patent applications cited above in this section.
2. EC50 values of the various compounds was measured in a transcription assay using genetically engineered HD1080 cells which constitutively express transcriptional switch components containing FKBP and 2098L mutant FRB domains, respectively and which regulatably express secreted alkaline phosphatase (SEAP) in the presence of a compound which multimerizes the switch components. The assay is a literature assay. See WO 99/36553, e.g. Example 12, pages 120–121 (& FIG. 2D) […]

murine splenocyte = murine splenocyte assay for immunosuppressive activity; assay type: cell-based; conditions: mouse splenocyte assay, methods of Example 2.5, read-out: Splenocyte IC50
Procedure: 3. Conventional murine splenocyte assay for immunosuppressive activity.
as §1

[2] = cellular transcription assay, methods of Example 2.5; read-out: TXN 2098L EC50
[3] = read-out: TXN 2098L EC50; cellular transcription assay, methods of Example 2.5

Sequence of FKBP (P62942 whole entry): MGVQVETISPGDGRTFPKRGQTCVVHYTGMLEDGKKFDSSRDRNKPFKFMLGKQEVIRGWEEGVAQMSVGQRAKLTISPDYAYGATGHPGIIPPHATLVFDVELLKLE

Compound | IC50 (FKBP; read-out: FKBP IC50) | EC50 [1, 2] | TXN 2098L peak relative to rapamycin peak ([1]; superscript mark on EC50 cell) | IC50 (murine splenocyte) | IC50 (murine splenocyte; Mus musculus, Splenocyte) | IC50 (FKBP; FKBP IC50 (nM)) | EC50 [1, 3]
COC1CC(CC(C)C2CC(=O)C(C)C=C(C)C(O)C(OC)C(=O)C(C)CC(C)C=CC=CC=C(C)C(NC(=O)Oc3ccccc3)CC3CCC(C)C(O)(O3)C(=O)C(=O)N3CCCCC3C(=O)O2)CCC1O (stereo not drawn) [28-epi-7R-phenylcarbamate] | 9 nM | 0.01 µM | (+) (peak was >125% rapamycin peak) | > 5 µM |  |  | 
CO[C@@H]1C[C@H](C[C@@H](C)[C@@H]2CC(=O)[C@H](C)/C=C(\C)[C@H](O)[C@@H](OC)C(=O)[C@H](C)C[C@H](C)/C=C/C=C/C=C(\C)[C@H](Oc3ccccc3)C[C@@H]3CC[C@@H](C)[C@@](O)(O3)C(=O)C(=O)N3CCCC[C@H]3C(=O)O2)CC[C@H]1O [28-epi-7R-phenyloxy] | 19 nM | 0.009 µM | (−) (peak was <80% rapamycin peak) |  | 0.2 to 1.95 µM |  | 
CCN([C@H]1C[C@@H]2CC[C@@H](C)[C@@](O)(O2)C(=O)C(=O)N2CCCC[C@H]2C(=O)O[C@H]([C@H](C)C[C@@H]2CC[C@@H](O)[C@H](OC)C2)CC(=O)[C@H](C)/C=C(\C)[C@H](O)[C@@H](OC)C(=O)[C@H](C)C[C@H](C)/C=C/C=C/C=C/1C)S(C)(=O)=O [28-epi-7S-N-Et-methanesulfonamide] |  |  | (+) (peak was >125% rapamycin peak) |  | 1.36 µM | 31 nM | 0.008 µM
CO[C@@H]1C[C@H](C[C@@H](C)[C@@H]2CC(=O)[C@H](C)/C=C(\C)[C@H](O)[C@@H](OC)C(=O)[C@H](C)C[C@H](C)/C=C/C=C/C=C(\C)[C@@H](N(C)C(=O)OCc3ccccc3)C[C@@H]3CC[C@@H](C)[C@@](O)(O3)C(=O)C(=O)N3CCCC[C@H]3C(=O)O2)CC[C@H]1O [28-epi-7S-N-Me-benzylcarbamate] | 40 nM | 0.009 µM |  | 0.158 µM |  |  | 
CO[C@@H]1C[C@H](C[C@@H](C)[C@@H]2CC(=O)[C@H](C)/C=C(\C)[C@H](O)[C@@H](OC)C(=O)[C@H](C)C[C@H](C)/C=C/C=C/C=C(\C)[C@@H](N(C)S(C)(=O)=O)C[C@@H]3CC[C@@H](C)[C@@](O)(O3)C(=O)C(=O)N3CCCC[C@H]3C(=O)O2)CC[C@H]1O [28-epi-7S-N-Me-methanesulfonamide] | 21 nM | 0.027 µM | (+) (peak was >125% rapamycin peak) |  | 0.14 µM |  | 
CO[C@@H]1C[C@H](C[C@@H](C)[C@@H]2CC(=O)[C@H](C)/C=C(\C)[C@H](O)[C@@H](OC)C(=O)[C@H](C)C[C@H](C)/C=C/C=C/C=C(\C)[C@@H](N(C)C(=O)Oc3ccc(C)cc3)C[C@@H]3CC[C@@H](C)[C@@](O)(O3)C(=O)C(=O)N3CCCC[C@H]3C(=O)O2)CC[C@H]1O [28-epi-7S-N-Me-p-tolylcarbamate] | 54 nM | 0.025 µM |  | 0.05 µM |  |  | 
C=CCO[C@H]1C[C@@H]2CC[C@@H](C)[C@@](O)(O2)C(=O)C(=O)N2CCCC[C@H]2C(=O)O[C@H]([C@H](C)C[C@@H]2CC[C@@H](O)[C@H](OC)C2)CC(=O)[C@H](C)/C=C(\C)[C@H](O)[C@@H](OC)C(=O)[C@H](C)C[C@H](C)/C=C/C=C/C=C/1C [28-epi-7S-allyloxy] |  |  |  |  | 1.8 µM | 18 nM | 0.008 µM
CO[C@@H]1C[C@H](C[C@@H](C)[C@@H]2CC(=O)[C@H](C)/C=C(\C)[C@H](O)[C@@H](OC)C(=O)[C@H](C)C[C@H](C)/C=C/C=C/C=C(\C)[C@@H](NC(=O)OCc3ccccc3)C[C@@H]3CC[C@@H](C)[C@@](O)(O3)C(=O)C(=O)N3CCCC[C@H]3C(=O)O2)CC[C@H]1O [28-epi-7S-benzylcarbamate] | 40 nM | 0.015 µM |  |  | 3.45 µM |  | 
CCCCS(=O)(=O)N[C@H]1C[C@@H]2CC[C@@H](C)[C@@](O)(O2)C(=O)C(=O)N2CCCC[C@H]2C(=O)O[C@H]([C@H](C)C[C@@H]2CC[C@@H](O)[C@H](OC)C2)CC(=O)[C@H](C)/C=C(\C)[C@H](O)[C@@H](OC)C(=O)[C@H](C)C[C@H](C)/C=C/C=C/C=C/1C [28-epi-7S-butanesulfonamide] | 9.2 nM | 0.011 µM | (+) (peak was >125% rapamycin peak) |  | 0.152 µM |  | 
COc1ccc([C@H]2C[C@@H]3CC[C@@H](C)[C@@](O)(O3)C(=O)C(=O)N3CCCC[C@H]3C(=O)O[C@H]([C@H](C)C[C@@H]3CC[C@@H](O)[C@H](OC)C3)CC(=O)[C@H](C)/C=C(\C)[C@H](O)[C@@H](OC)C(=O)[C@H](C)C[C@H](C)/C=C/C=C/C=C/2C)c(OC)c1 [28-epi-7S-dimethoxyphenyl] | 31 nM | 0.05 µM |  |  | 0.598 to 1.06 µM |  | 
COC1CC(CC(C)C2CC(=O)C(C)C=C(C)C(O)C(OC)C(=O)C(C)CC(C)C=CC=CC=C(C)C(NS(=O)(=O)N(C)C)CC3CCC(C)C(O)(O3)C(=O)C(=O)N3CCCCC3C(=O)O2)CCC1O (stereo not drawn) [28-epi-7S-dimethylsulfamide] | 13 nM | 0.02 µM | (+) (peak was >125% rapamycin peak) | 0.879 µM |  |  | 
CCOC(=O)N[C@H]1C[C@@H]2CC[C@@H](C)[C@@](O)(O2)C(=O)C(=O)N2CCCC[C@H]2C(=O)O[C@H]([C@H](C)C[C@@H]2CC[C@@H](O)[C@H](OC)C2)CC(=O)[C@H](C)/C=C(\C)[C@H](O)[C@@H](OC)C(=O)[C@H](C)C[C@H](C)/C=C/C=C/C=C/1C [28-epi-7S-ethylcarbamate] |  |  |  |  | > 5 µM | 13 nM | 0.01 µM
CO[C@@H]1C[C@H](C[C@@H](C)[C@@H]2CC(=O)[C@H](C)/C=C(\C)[C@H](O)[C@@H](OC)C(=O)[C@H](C)C[C@H](C)/C=C/C=C/C=C(\C)[C@@H](NS(C)(=O)=O)C[C@@H]3CC[C@@H](C)[C@@](O)(O3)C(=O)C(=O)N3CCCC[C@H]3C(=O)O2)CC[C@H]1O [28-epi-7S-methanesulfonamide] | 16 nM | 0.024 µM |  |  | 0.007 µM |  | 
CO[C@@H]1C[C@H](C[C@@H](C)[C@@H]2CC(=O)[C@H](C)/C=C(\C)[C@H](O)[C@@H](OC)C(=O)[C@H](C)C[C@H](C)/C=C/C=C/C=C(\C)[C@@H](NS(=O)(=O)N(C)c3ccccc3)C[C@@H]3CC[C@@H](C)[C@@](O)(O3)C(=O)C(=O)N3CCCC[C@H]3C(=O)O2)CC[C@H]1O [28-epi-7S-methylphenylsulfamide] | 11 nM | 0.028 µM |  | 0.564 µM |  |  | 
COC1CC(CC(C)C2CC(=O)C(C)C=C(C)C(O)C(OC)C(=O)C(C)CC(C)C=CC=CC=C(C)C(c3ccc(C)s3)CC3CCC(C)C(O)(O3)C(=O)C(=O)N3CCCCC3C(=O)O2)CCC1O (stereo not drawn) [28-epi-7S-methylthiophene] | 86 nM | 0.025 µM |  | 0.17 to 0.242 µM |  |  | 
COC1CC(CC(C)C2CC(=O)C(C)C=C(C)C(O)C(OC)C(=O)C(C)CC(C)C=CC=CC=C(C)C(NC(=O)Oc3ccccc3)CC3CCC(C)C(O)(O3)C(=O)C(=O)N3CCCCC3C(=O)O2)CCC1O (stereo not drawn) [28-epi-7S-phenylcarbamate] | 18 nM | 0.014 µM | (+) (peak was >125% rapamycin peak) | > 5 µM |  |  | 
CO[C@@H]1C[C@H](C[C@@H](C)[C@@H]2CC(=O)[C@H](C)/C=C(\C)[C@H](O)[C@@H](OC)C(=O)[C@H](C)C[C@H](C)/C=C/C=C/C=C(\C)[C@@H](Oc3ccccc3)C[C@@H]3CC[C@@H](C)[C@@](O)(O3)C(=O)C(=O)N3CCCC[C@H]3C(=O)O2)CC[C@H]1O [28-epi-7S-phenyloxy] | 36 nM | 0.008 µM | (−) (peak was <80% rapamycin peak) |  | 0.478 to 2.5 µM |  | 
